Experimental data as given in patent publication US8846675B2, “N-linked heterocyclic receptor agonists for the treatment of diabetes and metabolic disorders” (Cymabay Therapeutics, Inc., priority 2007, dated 2014).
Structures can show the parent of a compound that is named as a salt.

Target: T1, IC-GPCR2 (Homo sapiens, UniProt Q8TDV5)
T1 construct: expressed in transfected cells
T1 sequence (Q8TDV5 1-335 S309L): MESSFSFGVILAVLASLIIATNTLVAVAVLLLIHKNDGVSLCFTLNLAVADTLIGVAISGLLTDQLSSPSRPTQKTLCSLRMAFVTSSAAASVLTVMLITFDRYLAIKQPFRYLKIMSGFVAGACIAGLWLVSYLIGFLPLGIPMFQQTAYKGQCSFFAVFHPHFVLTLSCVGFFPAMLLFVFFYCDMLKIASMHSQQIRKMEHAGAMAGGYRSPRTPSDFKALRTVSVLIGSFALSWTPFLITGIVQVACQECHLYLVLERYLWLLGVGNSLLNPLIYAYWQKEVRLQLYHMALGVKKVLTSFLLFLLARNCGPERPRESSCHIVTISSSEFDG
Experiment: Stimulation of cAMP in CHO cell line stably expressing IC-GPCR2 (HTRF cAMP dynamic kit)
Assay type: cell-based
Conditions: 3 μM compound; relative to maximal activity of 5-Ethyl-2-{4-[4-(4-tetrazol-1-yl-phenoxymethyl)-thiazol-2-yl]-piperidin-1-yl}-pyrimidine (=100%); IC-GPCR2 stably expressing CHO cells, 30 minutes
Protocol: This assay was developed using a stable cell line expressing IC-GPCR-2, generated as follows. IC-GPCR2 (Seq. ID No. 1) was cloned into Gateway pDEST 40vector (Invitrogen), using the Gateway cloning system (invitrogen) according to the manufacturers instructions. A stable cell line was generated by transfecting a 10 cm plate of CHO cells (source) with 8 ug of this construct using Transit-CHO transfection kit (Mirus). CHO cells were plated the day prior to transfection at a density of 3,000,000 cells/plate. Clones were selected using the antibiotic G418 at 500 ug/ml. 23 clones were picked and assayed for the expression of the receptor by measuring changes in intracellular cAMP levels in response to an IC-GPCR2 agonist (Arena 51).
To measure cAMP activity in response to IC-GPCR2 agonist, the clones were plated in 96 well plates at 17500 cells per well. On the day after plating, cells were incubated with the IC-CPCR2 agonist at […] for 30 minutes in Ham's F12 Media (Gibco) with 0.04% DMSO. cAMP was measured using the cAMP dynamic kit from C is Bio (Bedford, Mass.) according to the manufacturers instructions. Briefly, cells were lysed, and cAMP levels determined by competitive immunoassay using D2 labeled cAMP, and europium cryptate tagged anti cAMP antibody. When in close proximity, the D2 and europium cryptate undergo fluorescence resonance energy transfer (FRET), which is measured as a fluorescence ratio (665 nm/620 nm). Unlabelled cAMP in the cell lysatc competed with the D2 labeled cAMP for the europium crypate labeled antibody. The resulting decrease in FRET signal corresponded to intracellular cAMP levels. Fluorescence was read on a BMG Labtech PHERAstar, software version 1.50.
The clone with the greatest response to IC-GPCR2 agonist was selected for the screening assay.
Compounds were dissolved in 100% DMSO to a concentration of […] to provide stock solutions. To determine activity against IC-GPCR2, compounds were incubated with IC-GPCR2 stably expressing cells (described above), at 6-8 concentrations ranging from 0.00003 to 10 micromolar, in 96 well plates, in 50 ul of Hams F12 media for 30 minutes. Cells were plated at 17500 cells per well 1 day before running the assay. All compounds were also screened against the parental CHO cells. cAMP was measured using the cAMP dynamic kit from Cis Bio (Bedford, Mass.), according to the manufacturer's instructions. Briefly, cells were lysed and cAMP levels determined by competitive immunoassay using D2 labeled cAMP, and europium cryptate tagged anti cAMP antibody. When in close proximity, the D2 and europium cryptate undergo fluorescence resonance energy transfer (FRET), which is measured as a fluorescence ratio (665 nm/620 nm). Unlabelled cAMP in the cell lysate competed with the D2 labeled cAMP for the europium crypate labeled antibody. The resulting decrease in FRET signal corresponded to intracellular cAMP levels
To determine percent activity for a tested compound, the FRET signal value obtained at a particular concentration are compared to the Maximal FRET signal value obtained for 5-Ethyl-2-{4-[4-(4-tetrazol-1-yl-phenoxymethyl)-thiazol-2-yl]-piperidin-1-yl}-pyrimidine. The maximal activity of 5-Ethyl-2-{4-[4-(4-tetrazol-1-yl-phenoxymethyl)-thiazol-2-yl]-piperidin-1-yl}-pyrimidine is designated as 100% activity. Typically, the concentration of 5-Ethyl-2-{4-[4-(4-tetrazol-1-yl-phenoxymethyl)-thiazol-2-yl]-piperidin-1-yl}-pyrimidine in the assay was approximately 0.1 μM. The synthesis of 5-Ethyl-2-{4-[4-(4-tetrazol-1-yl-phenoxymethyl)-thiazol-2-yl]-piperidin-1-yl}-pyrimidine is disclosed in co-owned pending U.S. patent application Ser. No. 11/964,461, herein incorporated by reference. Activities of compounds that were tested are shown in Table 1 below and are expressed as % activity at 3 μM compound compared to the maximal activity of 5-Ethyl-2-{4-[4-(4-tetrazol-1-yl-phenoxymethyl)-thiazol-2-yl]-piperidin-1-yl}-pyrimidine at 3 μM.

Point of comparison: `O=S(=O)(Cc1ccccc1)N1CCC(n2ncc(COc3ccc(-n4cnnn4)nc3)n2)CC1` [Example 47, 5-((2-(1-(Benzylsulfonyl)piperidin-4-yl)-2H-1,2,3-triazol-4-yl)methoxy)-2-(1H-tetrazol-1-yl)pyridine], “% activity at 3 μM” value 74.90%. Against it:
- FC(F)(F)c1cnc(N2CCC(n3ncc(COc4ccc(-n5cnnn5)nc4)n3)CC2)nc1 [Example 22, 2-{4-[4-(6-Tetrazol-1-yl-pyridin-3-yloxymethyl)-[1,2,3]triazol-2-yl]-piperidin-1-yl}-5-trifluoromethyl-pyrimidine] — higher, 78.44%
- c1cc(-n2cnnn2)ncc1OCc1cnn(C2CCN(c3nc(C4CC4)no3)CC2)n1 [Example 29, 5-{2-[1-(3-Cyclopropyl-[1,2,4]oxadiazol-5-yl)-piperidin-4-yl]-2H-[1,2,3]triazol-4-ylmethoxy}-2-tetrazol-1-yl-pyridine] — lower, 48.76%
- Fc1cnc(N2CCC(n3ncc(COc4ccc(-n5cnnn5)cc4F)n3)CC2)nc1 [Example 30, 5-Fluoro-2-(4-(4-((2-fluoro-4-(1H-tetrazol-1-yl)phenoxy)methyl)-2H-1,2,3-triazol-2-yl)piperidin-1-yl)pyrimidine] — lower, 53.41%
- Fc1cnc(N2CCC(n3ncc(COc4ccc(-n5cnnn5)nc4)n3)CC2)nc1 [Example 31, 2-(4-(4-((6-(1H-tetrazol-1-yl)pyridin-3-yloxy)methyl)-2H-1,2,3-triazol-2-yl)piperidin-1-yl)-5-fluoropyrimidine] — lower, 59.95%
- CCc1cnc(N2CCC(n3ncc(COc4ccc(-n5cnnn5)nc4)n3)CC2)nc1 [Example 32, 2-(4-(4-((6-(1H-tetrazol-1-yl)pyridin-3-yloxy)methyl)-2H-1,2,3-triazol-2-yl)piperidin-1-yl)-5-ethylpyrimidine] — higher, 75.55%
- CC(C)OC(=O)N1CCC(n2ncc(COc3ccc(-n4cnnn4)nc3)n2)CC1 [Example 35, Isopropyl 4-(4-((6-(1H-tetrazol-1-yl)pyridin-3-yloxy)methyl)-2H-1,2,3-triazol-2-yl)piperidine-1-carboxylate] — lower, 72.14%
- CC(C)OC(=O)N1CCC(n2ncc(COc3ccc(S(C)(=O)=O)cc3F)n2)CC1 [Example 36, Isopropyl 4-(4-((2-fluoro-4-(methylsulfonyl)phenoxy)methyl)-2H-1,2,3-triazol-2-yl)piperidine-1-carboxylate] — lower, 70.06%
- CC(C)OC(=O)N1CCC(n2ncc(COc3ccc(-n4cnnn4)cc3F)n2)CC1 [Example 37, Isopropyl 4-(4-((2-fluoro-4-(1H-tetrazol-1-yl)phenoxy)methyl)-2H-1,2,3-triazol-2-yl)piperidine-1-carboxylate] — lower, 62.88%
- O=S(=O)(c1c[nH]cn1)N1CCC(n2ncc(COc3ccc(-n4cnnn4)nc3)n2)CC1 [Example 40, 5-((2-(1-(1H-Imidazol-4-ylsulfonyl)piperidin-4-yl)-2H-1,2,3-triazol-4-yl)methoxy)-2-(1H-tetrazol-1-yl)pyridine] — lower, 7.10%
- O=S(=O)(C1CC1)N1CCC(n2ncc(COc3ccc(-n4cnnn4)nc3)n2)CC1 [Example 41, 5-((2-(1-(Cyclopropylsulfonyl)piperidin-4-yl)-2H-1,2,3-triazol-4-yl)methoxy)-2-(1H-tetrazol-1-yl)pyridine] — lower, 42.63%
- O=S(=O)(C1CCCCC1)N1CCC(n2ncc(COc3ccc(-n4cnnn4)nc3)n2)CC1 [Example 44, 5-((2-(1-(Cyclohexylsulfonyl)piperidin-4-yl)-2H-1,2,3-triazol-4-yl)methoxy)-2-(1H-tetrazol-1-yl)pyridine] — lower, 70.92%
- CC(C)S(=O)(=O)N1CCC(n2ncc(COc3ccc(-n4cnnn4)nc3)n2)CC1 [Example 45, 5-((2-(1-(Isopropylsulfonyl)piperidin-4-yl)-2H-1,2,3-triazol-4-yl)methoxy)-2-(1H-tetrazol-1-yl)pyridine] — lower, 67.58%
- CCCCS(=O)(=O)N1CCC(n2ncc(COc3ccc(-n4cnnn4)nc3)n2)CC1 [Example 46, 5-((2-(1-(Butylsulfonyl)piperidin-4-yl)-2H-1,2,3-triazol-4-yl)methoxy)-2-(1H-tetrazol-1-yl)pyridine] — higher, 79.78%
- Cc1ncccc1OCc1cnn(C2CCN(c3ncc(C(F)(F)F)cn3)CC2)n1 [Example 48] — higher, 83.24%
- CC(C)(C)OC(=O)N1CCC(CC(=O)N2CCC(n3ncc(COc4ccc(-n5cnnn5)nc4)n3)CC2)CC1 [Example 50, tert-Butyl 4-(2-(4-(-((6-(1H-tetrazol-1-yl)pyridine-3-yloxy)methyl)-2H-1,2,3-triazol-2-yl)piperidin-1-yl)-2-oxoethyl)piperidine-1-carboxylate] — lower, 49.51%
- O=C(CC1CCNCC1)N1CCC(n2ncc(COc3ccc(-n4cnnn4)nc3)n2)CC1 [Example 51, 1-(4-(4-((6-(1H-Tetrazol-1-yl)pyridin-3-yloxy)methyl)-2H-1,2,3-triazol-2-yl)piperidin-1-yl)-2-(piperidin-4-yl)ethanone hydrochloride] — lower, 57.93%
- COC(=O)Cc1cnc(N2CCC(n3ncc(COc4ccc(-n5cnnn5)nc4)n3)CC2)nc1 [Example 52, Methyl 2-(2-(4-(4-((6-(1H-tetrazol-1-yl)pyridin-3-yloxy)methyl)-2H-1,2,3-triazol-2-yl)piperidin-1-yl)pyrimidin-5-yl)acetate] — lower, 52.86%
- C[C@H](NC(=O)OC(C)(C)C)C(=O)N1CCC(n2ncc(COc3ccc(-n4cnnn4)nc3)n2)CC1 [Example 54, (S)-tert-Butyl 1-(4-(4-((6-(1H-tetrazol-1-yl)pyridin-3-yloxy)methyl)-2H-1,2,3-triazol-2-yl)piperidin-1-yl)-1-oxopropan-2-ylcarbamate] — lower, 36.82%
- C[C@H](N)C(=O)N1CCC(n2ncc(COc3ccc(-n4cnnn4)nc3)n2)CC1 [Example 55, (S)-1-(4-(4-((6-(1H-tetrazol-1-yl)pyridin-3-yloxy)methyl)-2H-1,2,3-triazol-2-yl)piperidin-1-yl)-2-aminopropan-1-one hydrochloride] — lower, 31.89%
- CC(C)(C)OC(=O)N[C@H](CC(=O)N1CCC(n2ncc(COc3ccc(-n4cnnn4)nc3)n2)CC1)Cc1cc(F)c(F)cc1F [Example 56, (S)-tert-Butyl 4-(4-(4-((6-(1H-tetrazol-1-yl)pyridin-3-yloxy)methyl)-2H-1,2,3-triazol-2-yl)piperidin-1-yl)-4-oxo-1-(2,4,5-trifluorophenyl)butan-2-ylcarbamate] — lower, 7.31%
- N[C@H](CC(=O)N1CCC(n2ncc(COc3ccc(-n4cnnn4)nc3)n2)CC1)Cc1cc(F)c(F)cc1F [Example 57, (S)-1-(4-(4-((6-(1H-tetrazol-1-yl)pyridin-3-yloxy)methyl)-2H-1,2,3-triazol-2-yl)piperidin-1-yl)-3-amino-4-(2,4,5-trifluorophenyl)butan-1-one hydrochloride] — lower, 27.80%
